“And” between values parts separate entries of the source, which are not always exact repeats. Identical values can stand only once.
Columns and labels:
MCF7 = assay: Growth inhibition of human MCF7 cells assessed as growth percentage at 10 uM incubated for 48 hrs by sulforhodamine B assay relative to control; type: functional; conditions: read-out: Activity
OVCAR-4 = assay: Growth inhibition of human OVCAR-4 cells assessed as growth percentage at 10 uM incubated for 48 hrs by sulforhodamine B assay relative to control; type: functional; conditions: read-out: Activity
U-251 = assay: Growth inhibition of human U-251 cells assessed as growth percentage at 10 uM incubated for 48 hrs by sulforhodamine B assay relative to control; type: functional; conditions: read-out: Activity
HT-29 [1] = assay: Growth inhibition of human HT-29 cells assessed as growth percentage at 10 uM incubated for 48 hrs by sulforhodamine B assay relative to control; type: functional; conditions: read-out: Activity
HOP-62 [2] = assay: Growth inhibition of human HOP-62 cells assessed as growth percentage at 10 uM incubated for 48 hrs by sulforhodamine B assay relative to control; type: functional; conditions: read-out: Activity
HL-60(TB) = assay: Growth inhibition of human HL-60(TB) cells assessed as growth percentage at 10 uM incubated for 48 hrs by sulforhodamine B assay relative to control; type: functional; conditions: read-out: Activity
[3] = molecular target: Fibroblast growth factor receptor 2 (Homo sapiens) (UniProt P21802); assay: Inhibition of human FGFR2 at 10 uM using myelin basic protein as substrate incubated for 40 mins in presence of [gamma33P]ATP by scintillation counting method relative to control
Sequence of Fibroblast growth factor receptor 2 (Homo sapiens) (P21802 22-821 limits assumed): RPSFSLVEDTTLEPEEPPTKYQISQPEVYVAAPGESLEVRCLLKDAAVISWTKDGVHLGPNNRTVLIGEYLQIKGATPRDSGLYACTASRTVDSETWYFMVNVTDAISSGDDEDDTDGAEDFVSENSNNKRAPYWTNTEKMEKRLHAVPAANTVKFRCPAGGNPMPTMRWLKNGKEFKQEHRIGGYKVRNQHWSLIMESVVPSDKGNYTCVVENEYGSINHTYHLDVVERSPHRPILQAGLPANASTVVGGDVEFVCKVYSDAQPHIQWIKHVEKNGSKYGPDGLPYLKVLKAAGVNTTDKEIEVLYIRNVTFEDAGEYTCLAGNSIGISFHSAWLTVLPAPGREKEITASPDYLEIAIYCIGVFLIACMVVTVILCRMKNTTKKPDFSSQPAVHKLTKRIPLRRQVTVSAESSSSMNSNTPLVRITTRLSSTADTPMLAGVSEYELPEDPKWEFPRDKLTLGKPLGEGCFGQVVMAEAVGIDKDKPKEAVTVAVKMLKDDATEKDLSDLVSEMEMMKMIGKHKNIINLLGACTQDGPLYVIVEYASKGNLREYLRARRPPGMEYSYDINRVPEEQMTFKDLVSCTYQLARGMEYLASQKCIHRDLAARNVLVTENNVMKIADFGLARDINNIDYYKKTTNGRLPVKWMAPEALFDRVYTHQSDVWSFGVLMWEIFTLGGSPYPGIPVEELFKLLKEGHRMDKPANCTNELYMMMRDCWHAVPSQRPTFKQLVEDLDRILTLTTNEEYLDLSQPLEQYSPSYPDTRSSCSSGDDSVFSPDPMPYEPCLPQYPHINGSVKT

UACC-62 [4] = assay: Growth inhibition of human UACC-62 cells incubated for 48 hrs by sulforhodamine B assay; type: functional
SK-MEL-28 = assay: Growth inhibition of human SK-MEL-28 cells incubated for 48 hrs by sulforhodamine B assay; type: functional
M14 [5] = assay: Growth inhibition of human M14 cells incubated for 48 hrs by sulforhodamine B assay; type: functional
SNB-19 = assay: Growth inhibition of human SNB-19 cells incubated for 48 hrs by sulforhodamine B assay; type: functional
SF-295 = assay: Growth inhibition of human SF-295 cells incubated for 48 hrs by sulforhodamine B assay; type: functional
HCC 2998 = assay: Growth inhibition of human HCC 2998 cells incubated for 48 hrs by sulforhodamine B assay; type: functional
NCI-H322M = assay: Growth inhibition of human NCI-H322M cells incubated for 48 hrs by sulforhodamine B assay; type: functional; conditions: Homo sapiens, NCI-H322M
HOP-62 [6] = assay: Growth inhibition of human HOP-62 cells incubated for 48 hrs by sulforhodamine B assay; type: functional
HCT-116 = assay: Antiproliferative activity against human HCT-116 cells assessed as cell growth inhibition measured after 72 hrs by MTT assay; type: functional
DU-145 [7] = assay: Growth inhibition of human DU-145 cells assessed as growth percentage at 100 uM incubated for 48 hrs by sulforhodamine B assay relative to control; type: functional; conditions: read-out: Activity
CAKI-1 [8] = assay: Growth inhibition of human CAKI-1 cells assessed as growth percentage at 100 uM incubated for 48 hrs by sulforhodamine B assay relative to control; type: functional; conditions: read-out: Activity
UACC-257 = assay: Growth inhibition of human UACC-257 cells assessed as growth percentage at 100 uM incubated for 48 hrs by sulforhodamine B assay relative to control; type: functional; conditions: read-out: Activity
Malme-3M [9] = assay: Growth inhibition of human Malme-3M cells assessed as growth percentage at 100 uM incubated for 48 hrs by sulforhodamine B assay relative to control; type: functional; conditions: read-out: Activity
HT-29 [10] = assay: Growth inhibition of human HT-29 cells assessed as growth percentage at 100 uM incubated for 48 hrs by sulforhodamine B assay relative to control; type: functional; conditions: read-out: Activity
NCI-H23 [11] = assay: Growth inhibition of human NCI-H23 cells assessed as growth percentage at 100 uM incubated for 48 hrs by sulforhodamine B assay relative to control; type: functional; conditions: read-out: Activity
PC-3 = assay: Growth inhibition of human PC-3 cells assessed as growth percentage at 1 uM incubated for 48 hrs by sulforhodamine B assay relative to control; type: functional; conditions: read-out: Activity
UACC-62 [12] = assay: Growth inhibition of human UACC-62 cells assessed as growth percentage at 1 uM incubated for 48 hrs by sulforhodamine B assay relative to control; type: functional; conditions: read-out: Activity
M14 [13] = assay: Growth inhibition of human M14 cells assessed as growth percentage at 1 uM incubated for 48 hrs by sulforhodamine B assay relative to control; type: functional; conditions: read-out: Activity
Malme-3M [14] = assay: Growth inhibition of human Malme-3M cells assessed as growth percentage at 1 uM incubated for 48 hrs by sulforhodamine B assay relative to control; type: functional; conditions: read-out: Activity
HT-29 [15] = assay: Growth inhibition of human HT-29 cells assessed as growth percentage at 1 uM incubated for 48 hrs by sulforhodamine B assay relative to control; type: functional; conditions: read-out: Activity
OVCAR-8 = assay: Growth inhibition of human OVCAR-8 cells assessed as growth percentage at 0.1 uM incubated for 48 hrs by sulforhodamine B assay relative to control; type: functional; conditions: read-out: Activity
SK-MEL-5 = assay: Growth inhibition of human SK-MEL-5 cells assessed as growth percentage at 0.1 uM incubated for 48 hrs by sulforhodamine B assay relative to control; type: functional; conditions: read-out: Activity
MDA-MB-435 = assay: Growth inhibition of human MDA-MB-435 cells assessed as growth percentage at 0.1 uM incubated for 48 hrs by sulforhodamine B assay relative to control; type: functional; conditions: read-out: Activity
SW-620 = assay: Growth inhibition of human SW-620 cells assessed as growth percentage at 0.1 uM incubated for 48 hrs by sulforhodamine B assay relative to control; type: functional; conditions: read-out: Activity
RPMI-8226 = assay: Growth inhibition of human RPMI-8226 cells assessed as growth percentage at 0.1 uM incubated for 48 hrs by sulforhodamine B assay relative to control; type: functional; conditions: read-out: Activity
MDA-MB-231 = assay: Growth inhibition of human MDA-MB-231/ATCC cells assessed as growth percentage at 0.01 uM incubated for 48 hrs by sulforhodamine B assay relative to control; type: functional; conditions: read-out: Activity
DU-145 [16] = assay: Growth inhibition of human DU-145 cells assessed as growth percentage at 0.01 uM incubated for 48 hrs by sulforhodamine B assay relative to control; type: functional; conditions: read-out: Activity
CAKI-1 [17] = assay: Growth inhibition of human CAKI-1 cells assessed as growth percentage at 0.01 uM incubated for 48 hrs by sulforhodamine B assay relative to control; type: functional; conditions: read-out: Activity
A498 = assay: Growth inhibition of human A498 cells assessed as growth percentage at 0.01 uM incubated for 48 hrs by sulforhodamine B assay relative to control; type: functional; conditions: read-out: Activity
NCI-H23 [18] = assay: Growth inhibition of human NCI-H23 cells assessed as growth percentage at 0.01 uM incubated for 48 hrs by sulforhodamine B assay relative to control; type: functional; conditions: read-out: Activity
K562 = assay: Growth inhibition of human K562 cells assessed as growth percentage at 0.01 uM incubated for 48 hrs by sulforhodamine B assay relative to control; type: functional; conditions: read-out: Activity
[19] = 48 h, read-out: LC50 (the source's name)

Structure (SMILES): CCCCCCCC(=O)Nc1nc2[nH]c(CN3CCN(Cc4cccc(F)c4)CC3)c(CN3CCN(Cc4cccc(F)c4)CC3)c2c(=O)[nH]1
- growth at 10 µM (MCF7): -72.9%
- growth at 10 µM (OVCAR-4): -94%
- growth at 10 µM (U-251): -92.7%
- growth at 10 µM (HT-29 [1]): -69.7%
- growth at 10 µM (HOP-62 [2]): -93.2%
- growth at 10 µM (HL-60(TB)): -60.1%
- inhibition [3]: 25.9%
- GI50 (UACC-62 [4]; 48 h): 1680 nM
- TGI (UACC-62 [4]; 48 h): 3150 nM
- CC50 (UACC-62 [4]; [19]): 590 nM and 5900 nM
- GI50 (UACC-62 [4]; Homo sapiens, UACC-62, 48 h): 1800 nM
- TGI (UACC-62 [4]; Homo sapiens, UACC-62, 48 h): 3420 nM
- GI50 (SK-MEL-28): 1790 nM
- TGI (SK-MEL-28): 3620 nM
- GI50 (M14 [5]; 48 h): 210 nM
- TGI (M14 [5]; 48 h): 470 nM
- LC50 (50% lethal concentration) (M14 [5]; Homo sapiens, M14): 1240 nM
- GI50 (M14 [5]; Homo sapiens, M14, 48 h): 205 nM
- TGI (M14 [5]; Homo sapiens, M14, 48 h): 466 nM
- GI50 (SNB-19): 1560 nM
- LC50 (concentration killing 50% of cells) (SNB-19): 6340 nM
- TGI (SNB-19): 3140 nM
- GI50 (SF-295): 1410 nM
- LC50 (SF-295): 5790 nM
- TGI (SF-295): 2850 nM
- GI50 (HCC 2998; 48 h): 250 nM
- TGI (HCC 2998; 48 h): 570 nM
- GI50 (HCC 2998; Homo sapiens, HCC 2998, 48 h): 248 nM
- TGI (HCC 2998; Homo sapiens, HCC 2998, 48 h): 573 nM
- CC50 (HCC 2998; Homo sapiens, HCC 2998, read-out: LC50 (the source's name)): 2620 nM
- GI50 (NCI-H322M): 1460 nM
- TGI (NCI-H322M): 2920 nM
- CC50 (NCI-H322M; [19]): 5830 nM
- GI50 (HOP-62 [6]): 1420 nM
- TGI (HOP-62 [6]): 2850 nM
- CC50 (HOP-62 [6]; read-out: LC50 (the source's name)): 5700 nM
- GI50 (HCT-116): 2250 nM
- growth at 100 µM (DU-145 [7]): -83%
- growth at 100 µM (CAKI-1 [8]): -96%
- growth at 100 µM (UACC-257): -91%
- growth at 100 µM (Malme-3M [9]): -73%
- growth at 100 µM (HT-29 [10]): -68%
- growth at 100 µM (NCI-H23 [11]): -53%
- growth at 1 µM (PC-3): 68%
- growth at 1 µM (UACC-62 [12]): 92%
- growth at 1 µM (M14 [13]): -47%
- growth at 1 µM (Malme-3M [14]): 40%
- growth at 1 µM (HT-29 [15]): -26%
- growth at 0.1 µM (OVCAR-8): 103%
- growth at 0.1 µM (SK-MEL-5): 101%
- growth at 0.1 µM (MDA-MB-435): 90%
- growth at 0.1 µM (SW-620): 97%
- growth at 0.1 µM (RPMI-8226): 97%
- growth at 0.01 µM (MDA-MB-231): 105%
- growth at 0.01 µM (DU-145 [16]): 100%
- growth at 0.01 µM (CAKI-1 [17]): 92%
- growth at 0.01 µM (A498): 66%
- growth at 0.01 µM (NCI-H23 [18]): 98%
- growth at 0.01 µM (K562): 102%
